According to patent publication EP3189850A1, “LIVER TARGETING OF CYCLIC PRES-DERIVED PEPTIDES OF HBV” (Ruprecht-Karls-Universität Heidelberg, priority 2015, dated 2017):
Bridge positions count the residues as written; N and C are the ends. Square brackets hold non-standard residues; d marks the D form. Ends that are not written are not given here. * marks the point of attachment. Myristoyl = CCCCCCCCCCCCCC(=O)*

Legend:
[1] = Biodistribution and γ-camera imaging of the 125I-labeled peptide (Figure 4); type: in vivo; details: γ-camera / biodistribution in NMRI mice
[2] = molecular target: T1, NTCP (Mus musculus, UniProt O08705); experiment: Scintigraphic imaging (125I) and MicroPET (68Ga) of labelled peptides with and without excess of Myrcludex B (Figure 3); type: in vivo; details: healthy mice; labelled peptide with and without excess of Myrcludex B; 20 and 120 min p.i.
T1 construct: from tissue; host or cells: liver of healthy mice, in vivo imaging
T1 sequence (O08705 1-362): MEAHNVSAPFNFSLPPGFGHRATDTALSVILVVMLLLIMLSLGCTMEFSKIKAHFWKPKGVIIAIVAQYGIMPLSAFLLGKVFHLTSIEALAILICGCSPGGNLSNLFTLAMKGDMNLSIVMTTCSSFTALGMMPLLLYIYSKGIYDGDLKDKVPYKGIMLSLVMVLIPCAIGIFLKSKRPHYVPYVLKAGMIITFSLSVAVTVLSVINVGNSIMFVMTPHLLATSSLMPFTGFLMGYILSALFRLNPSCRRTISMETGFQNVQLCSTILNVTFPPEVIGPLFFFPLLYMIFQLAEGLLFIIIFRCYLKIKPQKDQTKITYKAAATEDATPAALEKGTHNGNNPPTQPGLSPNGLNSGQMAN
Procedure: Ca. 1 mL of [^68Ga]Ga^3+ eluate (ca. 600-800 MBq) was added to a mixture of 20 µL of a 1mM solution of compound xy in DMSO and 10 µL of saturated solution of ascorbic acid in water. The pH of the resulting mixture was adjusted to 3.5-4.0 by careful addition of a 2.5 M sodium acetate solution in water. Complexation was achieved by heating to over 95°C for 5-10 minutes under constant stirring. The product was isolated by solid phase extraction with ethanol followed by evaporation. The residue was taken up in 1% bovine serum albumin solution and an appropriate amount (ca. 20-50 MBq) was used for the individual experiment in a volume not exceeding 100 µl. Mice were anesthetized with 1% sevoflurane (Abbott, Wiesbaden, Germany) and images were recorded using an Inveon small animal positron emission tomographic (PET) scanner (Siemens, Knoxville, TN) up to 60 minutes postinjection.

Substance: myr-cyclo-intra[NP^*LGFFPDy]
- elimination via the intestine (time) [1]: ≤ 2 h
- liver accumulation [1]: accumulates rapidly in the liver

Substance: myr-cyclo[CNPLGFFPDC]y (Myristoyl-CNPLGFFPDC[dY]; disulfide 1-10; also: 125I-labelled) [cyclo[9-16]myr, myristoylated Cys-HBVpreS9-16-Cys-D-Tyr cyclized via disulfide bridge of the two cysteines]
- accumulation in the liver [2]: NTCP specific accumulation in the liver
